Test results: ChEMBL document CHEMBL1148300, “Synthesis and evaluation of oxazaborolidines for antibacterial activity against Streptococcus mutans” (2004)
In brackets after ≈: the same amount, converted by molar mass.

These compounds were tested on Streptococcus mutans (assay: Minimal Inhibitory Concentration ofcompound against Streptococcus mutans).
Assay type: functional

| Compound | MIC |
| --- | --- |
| CCCC[B-]12OCC[NH+]1CCO2 (stereo not drawn) | 6.75 mM (≈ 1150 µg/mL) |
| c1ccc([B-]23OCC[NH+]2CCO3)cc1 (stereo not drawn) | 6.75 mM (≈ 1290 µg/mL) |
| CC1(C)COB(c2ccccc2)N1 | 6 mM (≈ 1050 µg/mL) |
| CCCCB1NC(C)(C)CO1 | 3.38 mM (≈ 524 µg/mL) |
| CC1C(c2ccccc2)OB(c2ccccc2)N1C (stereo not drawn) | 1.55 mM (≈ 389 µg/mL) |

Continued by falling MIC, values first:

| MIC | Compound |
| --- | --- |
| 2.83 mM (≈ 614 µg/mL) | CCCCB1NC(C)C(c2ccccc2)O1 (stereo not drawn) |
| 1.33 mM (≈ 315 µg/mL) | CC1NB(c2ccccc2)OC1c1ccccc1 (stereo not drawn) |
| 0.53 mM (≈ 123 µg/mL) | CCCCB1OC(c2ccccc2)C(C)N1C (stereo not drawn) |
